The record followed here is ChEMBL document CHEMBL1201862, “PubChem BioAssay data set” (2004).

Some test systems named below: K562; HCC 2998; NCI-H23; MDA-MB-231; A498; SK-MEL-2; UACC-62; HOP-62; Hs-578T; CCRF-CEM; PC-3; TK-10; 786-0; DU-145; SNB-19; NCI-H226; MCF7; HCT-15; KM12; ACHN.
Common to all, as to experiment: growth of human tumour cells (NCI), 48 h

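Cells were grown in 96-well plates and exposed to each compound for 48 hours at five concentrations; endpoints were interpolated linearly between bracketing concentrations, or set to the highest concentration if not reached. GI50 = concentration required for 50% inhibition of growth.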 Activity calls are given as the source filed them. Rule as the data show it: active = GI50 up to about 1.1 µM and inactive = higher.

For the compound `Nc1cc2c3c(cccc3c1)C(=O)N(c1ccc(OCCN3CCCC3)cc1)C2=O`, the GI50 was 14.5 µM (inactive) in the assay on K562; 17.5 µM (inactive) in the assay with HCC 2998; 14.4 µM (inactive) in the assay on NCI-H23; 24.8 µM (inactive) with MDA-MB-231; 36.5 µM (inactive) in the assay with A498; 19.4 µM (inactive) in the assay with SK-MEL-2. For the same compound, the GI50 was 16.6 µM (inactive) in the assay with UACC-62; 15.9 µM (inactive) in the assay on HOP-62; 18.7 µM (inactive) with Hs-578T; 23.3 µM (inactive) in the assay with CCRF-CEM; 21.4 µM (inactive) in the assay with PC-3; 17.5 µM (inactive) in the assay on TK-10. For the same compound, the GI50 is 15.2 µM (inactive) in the assay on 786-0; 27.4 µM (inactive) with DU-145; 17.2 µM (inactive) in the assay on SNB-19; 14.5 µM (inactive) with NCI-H226; 17.3 µM (inactive) in the assay with MCF7; 13.8 µM in the assay on HCT-15. The GI50 in the assay on KM12 is 16.1 µM (inactive); in the assay on ACHN it was 13.5 µM (inactive).

Regarding `c1ccc(CSc2ccccc2CN2CCN(Cc3ccccc3SCc3ccccc3)CCN(Cc3ccccc3SCc3ccccc3)CC2)cc1`, the GI50 is 0.989 µM (active) with K562; 1.09 µM (active) in the assay with HCC 2998; 0.951 µM (active) in the assay with NCI-H23; 1.51 µM (inactive) in the assay on MDA-MB-231; 2.25 µM (inactive) with A498; 1.45 µM (inactive) in the assay on SK-MEL-2. The GI50 in the assay on UACC-62 is 1.43 µM (inactive); in the assay with HOP-62 it was 1.93 µM (inactive); in the assay with Hs-578T, 1.85 µM (inactive); in the assay with CCRF-CEM, 2.35 µM (inactive); in the assay with PC-3, 1.26 µM (inactive); in the assay with TK-10, 2.3 µM (inactive). The GI50 in the assay on 786-0 is 1.61 µM (inactive); with DU-145, 2.94 µM (inactive); in the assay on SNB-19, 1.92 µM (inactive); with NCI-H226, 1.81 µM (inactive); in the assay on MCF7, 1.48 µM (inactive); in the assay on HCT-15, 1.61 µM. The GI50 in the assay on KM12 was 1.58 µM (inactive); with ACHN, 2.58 µM (inactive).

For `CC(=O)OCC(OC(C)=O)C1C[C@H]2O[C@@H]3[C@H](C[C@H]2O1)O[C@@]1(C[C@@H]3C)C[C@H](C)[C@@H]2O[C@]3(C[C@@H]2O1)C[C@H]1O[C@H]2[C@H](C)[C@H]4OC(=O)CC5CC[C@H]6OC7[C@H]8O[C@]9(CC[C@H]%10CC(O)(CO)[C@H](CC[C@H]%11C[C@@H](C)C(O)(CO)C(C[C@@H]4O[C@H]2C[C@H]1O3)O%11)O%10)CC8O[C@@H]7[C@@H](O9)[C@H]6O5` (stereo partly drawn), the GI50 is 0.00116 µM (active) with K562; 0.00532 µM (active) in the assay with HCC 2998; 0.00496 µM (active) with NCI-H23; 0.0705 µM (active) in the assay with MDA-MB-231; > 0.214 µM (active) with A498; 0.116 µM (active) with SK-MEL-2. Also, the GI50 in the assay on UACC-62 was 0.00305 µM (active); with HOP-62, 0.0622 µM (active); with Hs-578T, 0.00154 µM (active); in the assay with CCRF-CEM, 0.00944 µM (active); with PC-3, 0.00614 µM (active); with 786-0, 0.00532 µM (active). Further, the GI50 in the assay on DU-145 is 0.00386 µM (active); in the assay with SNB-19, 0.0194 µM (active); in the assay on NCI-H226 it was 0.0122 µM (active); with MCF7, 0.00281 µM (active); in the assay with HCT-15, 0.00486 µM; with KM12, 0.00415 µM (active). Further, the GI50 with ACHN is 0.0479 µM (active).

Take `CSc1ncnc2c1cnn2CCCCO`: the GI50 in the assay on K562, in the assay with HCC 2998, with NCI-H23, in the assay with MDA-MB-231, in the assay with A498 and in the assay with SK-MEL-2 was > 100 µM (inactive) throughout. In addition, the GI50 in the assay with UACC-62, in the assay on HOP-62, in the assay on Hs-578T, with CCRF-CEM, with PC-3 and in the assay with TK-10 was > 100 µM (inactive) each time. For the same compound, the GI50 with 786-0 was > 100 µM (inactive); with DU-145, > 100 µM (inactive); in the assay with SNB-19, > 100 µM (inactive); in the assay with NCI-H226, > 100 µM (inactive); in the assay on MCF7, > 100 µM (inactive); in the assay on HCT-15 it was greater than 100 µM. Also, the GI50 in the assay on KM12 and in the assay with ACHN was > 100 µM (inactive) each time.

For `O=S1(=O)OC(c2ccc(O)cc2)(c2ccc(O)cc2)c2ccccc21` [PHENOLSULFONPHTHALEIN], the GI50 in the assay on K562, with HCC 2998, with NCI-H23, in the assay with MDA-MB-231, in the assay with A498 and with SK-MEL-2 was > 100 µM (inactive) throughout. Also, the GI50 in the assay on UACC-62, in the assay with HOP-62, with Hs-578T, in the assay on CCRF-CEM, with PC-3 and in the assay with TK-10 was > 100 µM (inactive) throughout. Further, the GI50 with 786-0 was > 100 µM (inactive); with DU-145, > 100 µM (inactive); with SNB-19, > 100 µM (inactive); with NCI-H226, > 100 µM (inactive); in the assay on MCF7 it was > 100 µM (inactive); in the assay with HCT-15 it was greater than 100 µM. In addition, the GI50 with KM12 and in the assay with ACHN was > 100 µM (inactive) in each case.

As for `CC12CP(=O)(c3ccccc3)CC1c1ccccc1C2c1ccccc1` (stereo not drawn), the GI50 in the assay with K562 was 5.9 µM (inactive); in the assay with HCC 2998 it was 17.7 µM (inactive); in the assay on NCI-H23, 20.7 µM (inactive); with MDA-MB-231, 18.5 µM (inactive); in the assay on A498, 27.7 µM (inactive); in the assay on SK-MEL-2 it was 28 µM (inactive). For the same compound, the GI50 was 29.2 µM (inactive) in the assay on UACC-62; 18.5 µM (inactive) in the assay with HOP-62; 26.3 µM (inactive) in the assay on Hs-578T; 3.04 µM (inactive) with CCRF-CEM; 12.4 µM (inactive) in the assay on PC-3; 62.2 µM (inactive) in the assay with TK-10. For the same compound, the GI50 in the assay with 786-0 is 17.3 µM (inactive); in the assay on DU-145, 21 µM (inactive); with SNB-19, 48 µM (inactive); in the assay with NCI-H226, 19.7 µM (inactive); with MCF7 it was > 100 µM (inactive); with HCT-15, 13.7 µM. In addition, the GI50 with KM12 is 17.3 µM (inactive); in the assay with ACHN, 18 µM (inactive).

Turning to `CC(C)N(CC(=O)O)CC(=O)O`, the GI50 with K562, in the assay with HCC 2998, in the assay on NCI-H23, in the assay on MDA-MB-231, with A498 and in the assay on SK-MEL-2 was > 100 µM (inactive) each time. Moreover, the GI50 in the assay with UACC-62, with HOP-62, with Hs-578T, with CCRF-CEM, with PC-3 and in the assay with TK-10 was > 100 µM (inactive) in each case. Further, the GI50 in the assay on 786-0 is > 100 µM (inactive); with DU-145 it was > 100 µM (inactive); with SNB-19, > 100 µM (inactive); in the assay on NCI-H226 it was > 100 µM (inactive); in the assay on MCF7, > 100 µM (inactive); in the assay with HCT-15, greater than 100 µM. Also, the GI50 in the assay on KM12 and with ACHN was > 100 µM (inactive) throughout.

Consider `COc1ccc(C(=O)/C=C/c2cc(O)c(O)cc2F)c(OC)c1`, for which the GI50 was 1.16 µM (inactive) in the assay with K562; 2.27 µM (inactive) in the assay with HCC 2998; 5.3 µM (inactive) in the assay with NCI-H23; 13.6 µM (inactive) in the assay with MDA-MB-231; 12.1 µM (inactive) with A498; 4.91 µM (inactive) in the assay on SK-MEL-2. Besides, the GI50 was 10.9 µM (inactive) with UACC-62; 6.58 µM (inactive) in the assay on HOP-62; 4.8 µM (inactive) in the assay on Hs-578T; 0.783 µM (active) in the assay on CCRF-CEM; 5.78 µM (inactive) with PC-3; 15.1 µM (inactive) in the assay with TK-10. In addition, the GI50 in the assay with 786-0 was 5.45 µM (inactive); with DU-145, 6.19 µM (inactive); in the assay on SNB-19, 9.79 µM (inactive); in the assay with NCI-H226, 13.2 µM (inactive); with MCF7, 0.395 µM (active); in the assay on HCT-15 it was 0.448 µM. Moreover, the GI50 with KM12 was 5.16 µM (inactive); with ACHN it was 7.08 µM (inactive).

As to `CCOC(=O)CCSc1nc2ccc(I)cc2c(=O)n1Cc1ccccc1`, the GI50 in the assay with K562 is 24 µM (inactive); in the assay with HCC 2998 it was 26.5 µM (inactive); in the assay on NCI-H23, 15.6 µM (inactive); in the assay with MDA-MB-231, 28.2 µM (inactive); in the assay on A498 it was 24.6 µM (inactive); in the assay with SK-MEL-2 it was 31 µM (inactive). Further, the GI50 in the assay on UACC-62 is 27.4 µM (inactive); in the assay on HOP-62 it was 26.5 µM (inactive); with Hs-578T, 25.2 µM (inactive); in the assay with CCRF-CEM, 15.8 µM (inactive); in the assay on PC-3 it was 41.7 µM (inactive); in the assay with TK-10, 39.4 µM (inactive). Besides, the GI50 was 25.6 µM (inactive) in the assay on 786-0; 37.1 µM (inactive) with DU-145; 38.2 µM (inactive) with SNB-19; 21.6 µM (inactive) with NCI-H226; 29.1 µM (inactive) with MCF7; 18 µM in the assay with HCT-15. Also, the GI50 with KM12 was 22.3 µM (inactive); in the assay on ACHN, 29.5 µM (inactive).

For the compound `CC(C)COC(c1ccc2c(c1)OCO2)C(C)Br` (stereo not drawn), the GI50 was 46.7 µM (inactive) in the assay with K562; 18.4 µM (inactive) in the assay with HCC 2998; 26.2 µM (inactive) in the assay on NCI-H23; 35.9 µM (inactive) with MDA-MB-231; 33.4 µM (inactive) in the assay with A498; 21.8 µM (inactive) in the assay on SK-MEL-2. Besides, the GI50 was 31.7 µM (inactive) in the assay with UACC-62; 24.9 µM (inactive) with HOP-62; 25.9 µM (inactive) with Hs-578T; 30.9 µM (inactive) with PC-3; 30.9 µM (inactive) in the assay on TK-10; 23.4 µM (inactive) in the assay on 786-0. The GI50 with DU-145 was 33.1 µM (inactive); in the assay with SNB-19, 33.7 µM (inactive); in the assay on NCI-H226 it was 26.4 µM (inactive); in the assay with MCF7, 31.4 µM (inactive); in the assay on HCT-15 it was 23.3 µM; in the assay on KM12, 22.9 µM (inactive). Besides, the GI50 with ACHN was 34 µM (inactive).
